Assay results reported in US12428406B2 (PMV Pharmaceuticals, Inc., priority 2019, dated 2025).

Molecular target: T1, p53 Y220C (Homo sapiens, UniProt P04637, Y220C)
T1 construct: The recombinant protein was a truncation mutant containing only amino acids 94-312 of p53; made in house; host or cells: E. coli
Experiment: In vitro DNA binding activity assay (HTRF / TR-FRET): stabilization of p53 Y220C and increase of its DNA binding activity
Format: biochemical
Settings: recombinant His-tagged p53 Y220C DNA binding domain (aa 94-312), biotin-labeled consensus DNA, incubated at 27° C. or 29° C. for 60 min
Outline: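 Compounds from 4.5 mM DMSO stocks, 3-fold serial dilutions; room-temperature incubations of 15 and 20 min. SC150 = concentration raising DNA binding by 50% over no-compound control.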

T1 sequence (P04637 94-312, change not shown): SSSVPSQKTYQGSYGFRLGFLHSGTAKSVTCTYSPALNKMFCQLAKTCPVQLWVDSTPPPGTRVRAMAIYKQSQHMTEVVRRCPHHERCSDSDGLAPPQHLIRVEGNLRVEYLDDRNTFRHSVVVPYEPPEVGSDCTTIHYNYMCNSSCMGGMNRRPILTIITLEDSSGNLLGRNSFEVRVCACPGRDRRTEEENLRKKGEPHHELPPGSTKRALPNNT

**Q.** For `COc1cc(S(C)(=O)=O)ccc1NCC#Cc1cc2c(N[C@@H]3CCC[C@H](n4nn[nH]c4=O)C3)cccc2n1CC(F)(F)F` [Compound 448A, 1-[(1S,3R)-3-[(2-{3-[(4-methanesulfonyl-2-methoxyphenyl)amino]prop-1-yn-1-yl}-1-(2,2,2-trifluoroethyl)-1H-indol-4-yl)amino]cyclo-hexyl]-4,5-dihydro-1H-1,2,3,4-tetrazol-5-one], which “SC150 (concentration of the compound required to increase the DNA binding activity by 50%)” value is on record?
**A.** ++ (++ = 0.05 μM ≤ SC150 < 0.1 μM)

**Q.** `COc1cc(S(C)(=O)=O)ccc1NCC#Cc1cc2c(NC3CCN(CCOCCOCCO)CC3)cccc2n1CC(F)(F)F` [Compound 544A, 2-[2-(2-{4-[(2-{3-[(4-methanesulfonyl-2-methoxyphenyl)amino]prop-1-yn-1-yl}-1-(2,2,2-trifluoroethyl)-1H-indol-4-yl)amino]piperidin-1-yl}ethoxy)ethoxy]ethan-1-ol] was tested. Which “SC150 (concentration of the compound required to increase the DNA binding activity by 50%)” value did it give?
**A.** + (+ = 0 μM ≤ SC150 < 0.05 μM)

**Q.** How did the “SC150 (concentration of the compound required to increase the DNA binding activity by 50%)” value turn out when `CNC(=O)c1ccc(NCC#Cc2cc3c(N[C@H]4CC[C@H](N5CCC6(CC5)COC6)CC4)cccc3n2CC(F)(F)F)c(OC)c1` [Compound 375A, 3-methoxy-N-methyl-4-{[3-(4-{[(1R,4R)-4-{2-oxa-7-azaspiro[3.5]nonan-7-yl}cyclohexyl]amino}-1-(2,2,2-trifluoroethyl)-1H-indol-2-yl)prop-2-yn-1-yl]amino}benzamide] was run?
**A.** + (+ = 0 μM ≤ SC150 < 0.05 μM)

**Q.** `COc1cc(S(C)(=O)=O)ccc1NCC#Cc1cc2c(N[C@H]3CCN(C)C[C@H]3F)cc(F)cc2n1CC(F)(F)F` (racemic) [Compound 836A, rac-6-fluoro-N-[(3R,4S)-3-fluoro-1-methylpiperidin-4-yl]-2-{3-[(4-methanesulfonyl-2-methoxyphenyl)amino]prop-1-yn-1-yl}-1-(2,2,2-trifluoroethyl)-1H-indol-4-amine] was tested. Which “SC150 (concentration of the compound required to increase the DNA binding activity by 50%)” value did it give?
**A.** + (+ = 0 μM ≤ SC150 < 0.05 μM)

**Q.** With `CCOC(=O)c1ccc(NCC#Cc2cc3c(N[C@H]4CCN(C(C)C)C[C@H]4F)cccc3n2CC(F)(F)F)c(OC)c1` (racemic) [Compound 797A, ethyl 4-((3-(4-(((3R,4S)-3-fluoro-1-isopropylpiperidin-4-yl)amino)-1-(2,2,2-trifluoroethyl)-1H-indol-2-yl)prop-2-yn-1-yl)amino)-3-methoxybenzoate] as the compound, how does the “SC150 (concentration of the compound required to increase the DNA binding activity by 50%)” value read?
**A.** + (+ = 0 μM ≤ SC150 < 0.05 μM)

**Q.** With `COc1cc(S(C)(=O)=O)ccc1NCC#Cc1cc2c(N[C@H]3CCOC[C@H]3F)cccc2n1CC(F)(F)F` [Compound 1025A, N-[(3S,4S)-3-fluorooxan-4-yl]-2-{3-[(4-methanesulfonyl-2-methoxyphenyl)amino]prop-1-yn-1-yl}-1-(2,2,2-trifluoroethyl)-1H-indol-4-amine] as the compound, how does the “SC150 (concentration of the compound required to increase the DNA binding activity by 50%)” value read?
**A.** + (+ = 0 μM ≤ SC150 < 0.05 μM)

**Q.** How did the “SC150 (concentration of the compound required to increase the DNA binding activity by 50%)” value turn out when `COc1cc(S(=O)(=O)N(C)C)ccc1NCC#Cc1cc2c(N[C@H]3CC[C@H](N(C)C)CC3)cccc2n1CC(F)(F)F` [Compound 127A, 3-methoxy-N,N-dimethyl-4-{[3-(4-{[(1R,4R)-4-(dimethylamino)cyclohexyl]amino}-1-(2,2,2-trifluoroethyl)-1H-indol-2-yl)prop-2-yn-1-yl]amino}benzene-1-sulfonamide] was run?
**A.** + (+ = 0 μM ≤ SC150 < 0.05 μM)

**Q.** For `COc1cc(S(N)(=O)=O)ccc1NCC#Cc1cc2c(NC3CCN(CC4COC(=O)O4)CC3)cccc2n1CC(F)(F)F` (centres unmarked) [Compound 546A, 3-methoxy-4-({3-[4-({1-[(2-oxo-1,3-dioxolan-4-yl)methyl]piperidin-4-yl}amino)-1-(2,2,2-trifluoroethyl)-1H-indol-2-yl]prop-2-yn-1-yl}amino)benzene-1-sulfonamide], which “SC150 (concentration of the compound required to increase the DNA binding activity by 50%)” value is on record?
**A.** + (+ = 0 μM ≤ SC150 < 0.05 μM)
